This is an account of results in ChEMBL document CHEMBL1201862, “PubChem BioAssay data set” (2004).

Some test systems named below: ACHN; DU-145; IGROV-1; K562; KM12; NCI-H522; NCI/ADR-RES; OVCAR-4; RPMI-8226; RXF 393; SF-268; SK-MEL-28; SK-MEL-5; SK-OV-3; SNB-19; TK-10; U-251; UACC-62; UO-31; MDA-N.
Experiment in all cases: NCI anticancer screen, dose series, 48 h

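Each compound was tested at five concentrations against cells in 96-well plates for 48 hours. At the GI50, growth is halved.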 Active and inactive are the calls of the source. No stated cut-off is given here; in the data, active = GI50 up to about 1.1 µM and inactive = higher. A value given as a limit tells only on which side of the number the result lay.

On to `CC(=O)O[C@@H]1CC[C@@]2(C)C(CC[C@H]3[C@@H]4CC[C@H]([C@H](C)CCc5nc6cc(C)ccc6[nH]5)[C@@]4(C)CC[C@@H]32)C1` (stereo not given in full), for which the GI50 with ACHN is 99.3 µM (inactive); with DU-145 it was 45.7 µM (inactive); in the experiment with IGROV-1, 4.34 µM (inactive); with K562, 12.6 µM (inactive); in the experiment on KM12 it was 12.7 µM (inactive); with NCI-H522, 16.7 µM (inactive). The GI50 was 97.3 µM (inactive) in the experiment with NCI/ADR-RES; 9.77 µM (inactive) in the experiment with OVCAR-4; 8.89 µM (inactive) with RPMI-8226; 6.81 µM (inactive) in the experiment with RXF 393; > 100 µM (inactive) with SF-268; > 100 µM (inactive) in the experiment with SK-MEL-28. Also, the GI50 is 25.9 µM (inactive) in the experiment with SK-MEL-5; > 100 µM (inactive) in the experiment with SK-OV-3; > 100 µM (inactive) with SNB-19; > 100 µM (inactive) in the experiment with TK-10; 18.2 µM (inactive) in the experiment with U-251; 11.5 µM (inactive) in the experiment on UACC-62. Also, the GI50 with UO-31 is 6.38 µM (inactive).

`CC(C)OC1=C(CC2(C)OCCO2)C(=O)C12OCCO2`: the GI50 in the experiment on ACHN is > 100 µM (inactive); with DU-145, > 100 µM (inactive); with IGROV-1, > 100 µM (inactive); in the experiment with KM12, > 100 µM (inactive); in the experiment on NCI-H522 it was 40.4 µM (inactive); in the experiment with NCI/ADR-RES, > 100 µM (inactive). Also, the GI50 in the experiment on OVCAR-4, in the experiment with SF-268, with SK-MEL-28, in the experiment with SK-MEL-5, in the experiment with SK-OV-3 and with SNB-19 was > 100 µM (inactive) each time. The GI50 in the experiment with TK-10, in the experiment with U-251, in the experiment on UACC-62 and in the experiment with UO-31 was > 100 µM (inactive) throughout.

As to `CCOC(=O)C(=O)C(/C(=N/N(C)C)C(=O)Nc1ccc(C)cc1C)c1nc2ccccc2nc1O` (stereo not given), the GI50 in the experiment on ACHN, in the experiment with IGROV-1, in the experiment on K562, in the experiment on KM12, in the experiment with MDA-N and in the experiment with NCI-H522 was > 100 µM (inactive) throughout. For the same compound, the GI50 in the experiment with NCI/ADR-RES, in the experiment with OVCAR-4, in the experiment with RPMI-8226, in the experiment with RXF 393, with SF-268 and with SK-MEL-28 was > 100 µM (inactive) throughout. Also, the GI50 in the experiment with SK-MEL-5, with SK-OV-3, with SNB-19, in the experiment with TK-10, with U-251 and in the experiment with UACC-62 was > 100 µM (inactive) each time. Also, the GI50 in the experiment with UO-31 was > 100 µM (inactive).

With `CN(C)CCNc1ccc(NCC[N+](C)(C)Cc2ccc([N+](=O)[O-])cc2)c2c1C(=O)c1c(O)ccc(O)c1C2=O`, the GI50 in the experiment with DU-145 is 30.1 µM (inactive); with IGROV-1, 40.3 µM (inactive); in the experiment on K562, 6.08 µM (inactive); with KM12 it was 26.1 µM (inactive); with MDA-N it was 20.7 µM (inactive); with NCI/ADR-RES, > 100 µM (inactive). In addition, the GI50 was > 100 µM (inactive) in the experiment with OVCAR-4; 7.57 µM (inactive) with RPMI-8226; 19.8 µM (inactive) in the experiment with SF-268; > 100 µM (inactive) in the experiment on SK-MEL-28; 10.8 µM (inactive) with SK-MEL-5; > 100 µM (inactive) in the experiment with SNB-19. The GI50 is 34 µM (inactive) in the experiment on U-251 and 31.6 µM (inactive) in the experiment on UACC-62.

`CC1(C)OCC(CO)(Nc2nc(N3CC3)nc(N3CC3)n2)CO1`: the GI50 in the experiment with ACHN was 1.42 µM (inactive); in the experiment on DU-145 it was 1.3 µM (inactive); in the experiment with IGROV-1, 20.6 µM (inactive); with K562 it was 12.7 µM (inactive); in the experiment on KM12, 16.3 µM (inactive); in the experiment with MDA-N, 13.3 µM (inactive). Besides, the GI50 in the experiment with NCI-H522 was 13.2 µM (inactive); in the experiment with OVCAR-4, 18.8 µM (inactive); in the experiment with RPMI-8226, 16.1 µM (inactive); in the experiment on RXF 393, 13.2 µM (inactive); in the experiment with SF-268, 4.07 µM (inactive); in the experiment with SK-MEL-28, 19.5 µM (inactive). Besides, the GI50 was 8.18 µM (inactive) with SK-MEL-5; 5.78 µM (inactive) in the experiment with SK-OV-3; 11.2 µM (inactive) with SNB-19; 24.6 µM (inactive) in the experiment with TK-10; 4.04 µM (inactive) in the experiment on U-251; 3.15 µM (inactive) in the experiment on UACC-62. The GI50 in the experiment on UO-31 was 8.95 µM (inactive).

As for `CC(=O)N(CCCCNC(=O)C(F)(F)F)CCCNC(=O)C(F)(F)F`, the GI50 in the experiment on ACHN, with DU-145, in the experiment on IGROV-1, in the experiment on K562, with KM12 and in the experiment on NCI-H522 was > 100 µM (inactive) in each case. Moreover, the GI50 in the experiment on NCI/ADR-RES, in the experiment on OVCAR-4, in the experiment with RPMI-8226, in the experiment with RXF 393, in the experiment with SF-268 and with SK-MEL-28 was > 100 µM (inactive) in each case. Besides, the GI50 in the experiment with SK-MEL-5, in the experiment with SK-OV-3, in the experiment with SNB-19, in the experiment with TK-10, in the experiment with U-251 and with UACC-62 was > 100 µM (inactive) each time. Also, in the experiment on UO-31, the GI50 is > 100 µM (inactive).

`c1ccc(CSc2nc(N3CCOCC3)c3cn[nH]c3n2)cc1`: the GI50 in the experiment with ACHN is 17.2 µM (inactive); in the experiment on DU-145, 26.2 µM (inactive); in the experiment on IGROV-1, 10.2 µM (inactive); with K562 it was 16.2 µM (inactive); in the experiment on KM12 it was 13.3 µM (inactive); with NCI-H522 it was 15.6 µM (inactive). The GI50 in the experiment with NCI/ADR-RES was 15.2 µM (inactive); with OVCAR-4, 40.7 µM (inactive); in the experiment on RPMI-8226 it was 7.85 µM (inactive); in the experiment on RXF 393, 6.1 µM (inactive); with SF-268, 20.4 µM (inactive); in the experiment with SK-MEL-28, 19.1 µM (inactive). In addition, the GI50 in the experiment on SK-MEL-5 was 15.8 µM (inactive); in the experiment on SK-OV-3, 25 µM (inactive); with SNB-19, 24.7 µM (inactive); in the experiment on TK-10, 18.5 µM (inactive); in the experiment with U-251, 20.5 µM (inactive); in the experiment on UACC-62, 11.4 µM (inactive). Moreover, the GI50 in the experiment on UO-31 was 11.6 µM (inactive).

As to `FC1C2=C(SC1(F)F)C1CCC2C1` (stereo not given), the GI50 with ACHN, in the experiment on DU-145, with IGROV-1, in the experiment with K562, with KM12 and with NCI-H522 was > 100 µM (inactive) in each case. The GI50 in the experiment with NCI/ADR-RES, in the experiment on OVCAR-4, in the experiment with RPMI-8226, with RXF 393, with SK-MEL-5 and with SK-OV-3 was > 100 µM (inactive) in each case. Further, the GI50 in the experiment with SNB-19, with TK-10, in the experiment with UACC-62 and in the experiment on UO-31 was > 100 µM (inactive) throughout.

As for `COC(=O)c1ccc(OCCn2nnc(C(=O)NN)c2C(=O)NN)cc1`, the GI50 in the experiment on ACHN, in the experiment on DU-145, with K562, in the experiment with KM12, in the experiment with MDA-N and with NCI/ADR-RES was > 100 µM (inactive) each time. Besides, the GI50 in the experiment on OVCAR-4, in the experiment on RPMI-8226, in the experiment with SK-MEL-28, in the experiment with SK-MEL-5, with SNB-19 and in the experiment on TK-10 was > 100 µM (inactive) throughout. In addition, the GI50 in the experiment with U-251 and with UO-31 was > 100 µM (inactive) in each case.

On to `N#Cc1nc(-c2ccccc2O)oc1N`, for which the GI50 with ACHN was > 100 µM (inactive); in the experiment on DU-145, > 100 µM (inactive); in the experiment with IGROV-1, 40 µM (inactive); in the experiment on K562 it was 29.9 µM (inactive); in the experiment with KM12 it was 42 µM (inactive); with MDA-N it was > 100 µM (inactive). For the same compound, the GI50 is 20.4 µM (inactive) in the experiment with RPMI-8226; 55.7 µM (inactive) in the experiment on RXF 393; 64.3 µM (inactive) with SF-268; > 100 µM (inactive) in the experiment on SK-MEL-28; 61.4 µM (inactive) in the experiment with SK-MEL-5; > 100 µM (inactive) in the experiment on SK-OV-3. For the same compound, the GI50 in the experiment with SNB-19 was > 100 µM (inactive); in the experiment with TK-10, 63.8 µM (inactive); in the experiment on U-251, > 100 µM (inactive); with UACC-62 it was 95.9 µM (inactive).

On to `CS(=O)(=O)OCCN(CCOS(C)(=O)=O)c1ccc(/C=N/c2cccc(Cl)c2)cc1`, for which the GI50 in the experiment with ACHN is 0.181 µM (active); in the experiment on DU-145, 1.27 µM (inactive); in the experiment with IGROV-1, 15.5 µM (inactive); with K562, 23.5 µM (inactive); in the experiment with KM12 it was 13.4 µM (inactive); with NCI-H522, 0.724 µM (active). For the same compound, the GI50 is 3.61 µM (inactive) with NCI/ADR-RES; 13.5 µM (inactive) in the experiment with OVCAR-4; 3.85 µM (inactive) in the experiment on RPMI-8226; 2.78 µM (inactive) in the experiment with RXF 393; 7.55 µM (inactive) with SF-268; 10.4 µM (inactive) in the experiment with SK-MEL-28. Further, the GI50 with SK-MEL-5 is 6.43 µM (inactive); with SK-OV-3, 0.561 µM (active); with SNB-19, 5.46 µM (inactive); in the experiment on TK-10, 2.19 µM (inactive); with U-251 it was 3.72 µM (inactive); in the experiment on UACC-62, 1.5 µM (inactive). Also, in the experiment on UO-31, the GI50 is 1.6 µM (inactive).
